According to the supplement of paper PMC10331698:
± gives the standard deviation of the averaged measurements.

Legend:
Assay in all cases: level (log10 ratio to DMSO vehicle control); higher = higher biomarker level / cell amount than vehicle control
Settings in all cases: in DMSO
[1] = compound: NC(=O)C(F)(F)C(F)(F)C(F)(F)F [Heptafluorobutyramide]
Experimental: (§1)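 BioMAP Diversity Plus panel of 12 human primary cell co-culture systems (3C, 4H, LPS, SAg, BT, BF4T, BE3C, CASM3C, HDF3CGF, KF3CT, MyoF, Mphg). Compounds were added 1 h before stimulation and left for 24 h (MyoF 48 h; BT 72 h for soluble read-outs or 6 d for IgG). Biomarkers were read by ELISA, cytotoxicity by SRB, PBMC viability and proliferation by Alamar Blue. Each well value was divided by the mean of 8 DMSO control wells on the same plate and log10 transformed; duplicate blinded samples were tested at 4 concentrations.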

[2] = compound: O=C(O)C(F)(F)C(F)(F)F [Perfluoropropanoic acid]
Experimental: as §1

[3] = compound: FC(F)(F)C(F)(F)C(F)(F)C(F)(F)C(F)(F)CCI [1-Iodo-1H,1H,2H,2H-perfluoroheptane]
Experimental: as §1

[4] = compound: FC(F)(F)C(F)(F)C(F)(F)C(F)(F)C(F)(F)C(F)(F)I [Perfluoro-1-iodohexane]
Experimental: as §1

[5] = compound: CCN(CCO)S(=O)(=O)C(F)(F)C(F)(F)C(F)(F)C(F)(F)C(F)(F)C(F)(F)C(F)(F)C(F)(F)F [N-Ethyl-N-(2-hydroxyethyl)perfluorooctanesulfonamide]
Experimental: as §1

[6] = compound: O=C(O)C(F)(F)OC(F)(F)C(F)(F)OC(F)(F)F [Perfluoro-3,6-dioxaheptanoic acid]
Experimental: as §1

[7] = compound: O=C(O)C(F)(F)C(F)(F)C(F)(F)OC(F)(C(F)(F)F)C(F)(F)F [Perfluoro-4-isopropoxybutanoic acid]
Experimental: as §1

Test System | level (log10) ([1]; 6700 nM) | level (log10) ([1]; 20000 nM) | level (log10) ([1]; 60000 nM) | level (log10) ([2]; 6700 nM) | level (log10) ([2]; 20000 nM) | level (log10) ([2]; 60000 nM) | level (log10) ([3]; 6700 nM) | level (log10) ([3]; 20000 nM) | level (log10) ([3]; 60000 nM) | level (log10) ([4]; 6700 nM) | level (log10) ([4]; 20000 nM) | level (log10) ([4]; 60000 nM) | level (log10) ([5]; 6700 nM) | level (log10) ([5]; 20000 nM) | level (log10) ([6]; 6700 nM) | level (log10) ([6]; 20000 nM) | level (log10) ([6]; 60000 nM) | level (log10) ([7]; 6700 nM) | level (log10) ([7]; 20000 nM) | level (log10) ([7]; 60000 nM)
BE3C:MMP-1 | 0.007 ± 0.0057 | 0.0045 ± 0.018 | 0.0195 ± 0.073 | -0.02 ± 0.041 | 0.001 ± 0.0014 | 0.03 ± 0.064 | 0.004 ± 0.023 | 0.074 ± 0.03 | 0.162 ± 0.0078 | -0.003 ± 0.0085 | -0.0065 ± 0.011 | 0.043 ± 0.016 | 0.255 ± 0.03 | 0.328 ± 0.0071 | -0.042 ± 0.048 | -0.0015 ± 0.057 | 0.0145 ± 0.037 | -0.002 ± 0.017 | 0.004 ± 0.025 | 0.0605 ± 0.054
MyoF:MMP-1 | -0.0185 ± 0.018 | -0.0105 ± 0.049 | 0.027 ± 0.082 | -0.0675 ± 0.11 | -0.0565 ± 0.06 | 0.05 ± 0.095 | -0.013 ± 0.038 | -0.0185 ± 0.037 | 0.037 ± 0.011 | 0.036 ± 0.0071 | 0.451 ± 0.19 | 0.661 ± 0.0028 | 0.069 ± 0.021 | 0.426 ± 0.052 | -0.0045 ± 0.0021 | -0.0545 ± 0.013 | 0.041 ± 0.054 | -0.0155 ± 0.0092 | 0.0115 ± 0.013 | 0.045 ± 0.051
KF3CT:CXCL8/IL-8 | 0.003 | 0.002 ± 0.0085 | 0.0095 ± 0.012 | -0.0125 ± 0.011 | 0.0095 ± 0.0092 | 0.0475 ± 0.03 | 0.007 ± 0.035 | 0.028 ± 0.02 | 0.06 ± 0.011 | -0.0125 ± 0.016 | 0.003 ± 0.0014 | 0 ± 0.011 | -0.0975 ± 0.012 | -0.0935 ± 0.0064 | -0.0075 ± 0.015 | 0.005 ± 0.011 | 0.0515 ± 0.033 | 0.0175 ± 0.018 | 0.0335 ± 0.005 | 0.043 ± 0.071
lMphg:SRB-Mphg | -0.038 ± 0.0071 | -0.0175 ± 0.0021 | 0.0155 ± 0.036 | -0.0375 ± 0.035 | -0.096 ± 0.057 | -0.0265 ± 0.1 | 0.004 ± 0.0028 | -0.0015 ± 0.0035 | 0.009 ± 0.013 | 0.002 ± 0.0057 | -0.006 ± 0.0028 | 0.0025 ± 0.029 | 0.0095 ± 0.00071 | 0.001 ± 0.021 | -0.053 ± 0.0014 | -0.079 ± 0.13 | -0.076 ± 0.19 | -0.0085 ± 0.012 | -0.0025 ± 0.005 | -0.019 ± 0.0028
CASM3C:Serum Amyloid A | -0.0555 ± 0.023 | -0.0445 ± 0.042 | -0.0065 ± 0.096 | -0.05 ± 0.033 | -0.0755 ± 0.026 | -0.0465 ± 0.054 | 0.011 ± 0.023 | 0.003 ± 0.0014 | -0.0195 ± 0.026 | 0.0035 ± 0.042 | 0.008 ± 0.035 | 0.007 ± 0.025 | 0.0875 ± 0.037 | 0.129 ± 0.042 | -0.038 ± 0.055 | -0.014 ± 0.0085 | -0.002 ± 0.086 | -0.0025 ± 0.0078 | -0.0295 ± 0.013 | 0.0165 ± 0.081
lMphg:CCL2/MCP-1 | -0.0035 ± 0.0021 | -0.001 ± 0.038 | 0.0175 ± 0.042 | -0.021 ± 0.017 | -0.0045 ± 0.0064 | 0.002 ± 0.013 | -0.005 ± 0.021 | -0.027 ± 0.016 | -0.037 ± 0.0071 | -0.021 ± 0.0099 | 0.0145 ± 0.032 | -0.003 ± 0.025 | 0.007 ± 0.034 | 0.002 ± 0.023 | 0.0035 ± 0.00071 | -0.006 ± 0.0099 | 0 ± 0.0042 | -0.018 ± 0.0042 | -0.0185 ± 0.0092 | 0.0175 ± 0.0078
3C:CD141/Thrombomodulin | -0.004 ± 0.083 | -0.022 ± 0.099 | -0.047 ± 0.11 | -0.016 ± 0.031 | 0.011 ± 0.021 | 0.0155 ± 0.0035 | -0.0385 ± 0.025 | -0.047 ± 0.031 | -0.031 ± 0.0057 | -0.025 ± 0.013 | -0.023 ± 0.014 | -0.0015 ± 0.005 | 0.046 ± 0.03 | 0.261 ± 0.14 | -0.037 ± 0.04 | -0.0105 ± 0.044 | -0.0255 ± 0.077 | -0.019 ± 0.0014 | -0.0365 ± 0.019 | -0.015 ± 0.0028
HDF3CGF:Collagen III | -0.017 ± 0.014 | -0.006 ± 0.013 | -0.0145 ± 0.005 | -0.01 ± 0.1 | -0.0045 ± 0.032 | 0.048 ± 0.013 | 0.0695 ± 0.026 | -0.008 ± 0.12 | -0.0595 ± 0.022 | -0.0405 ± 0.066 | -0.0755 ± 0.0021 | -0.178 ± 0.13 | -0.0465 ± 0.05 | -0.142 ± 0.044 | 0.0025 ± 0.0078 | 0.0225 ± 0.0035 | 0.0375 ± 0.022 | -0.02 ± 0.051 | -0.0115 ± 0.011 | -0.0025 ± 0.057
lMphg:SRB | -0.015 ± 0.0099 | -0.0025 ± 0.005 | 0 ± 0.02 | -0.0065 ± 0.005 | -0.0125 ± 0.0021 | -0.011 ± 0.016 | 0.006 ± 0.013 | -0.011 ± 0.0014 | -0.001 ± 0.0057 | -0.0055 ± 0.00071 | -0.0025 ± 0.0035 | 0.0035 ± 0.0078 | -0.0215 ± 0.0078 | -0.0435 ± 0.022 | -0.0015 ± 0.0092 | 0.0025 ± 0.011 | -0.002 ± 0.016 | -0.003 ± 0.0071 | -0.0035 ± 0.005 | -0.009 ± 0.023
HDF3CGF:CCL2/MCP-1 | 0.0005 ± 0.04 | 0.0055 ± 0.036 | 0.0185 ± 0.066 | -0.022 ± 0.047 | -0.024 ± 0.04 | 0.017 ± 0.051 | 0.0085 ± 0.0035 | 0.02 ± 0.021 | -0.013 ± 0.035 | -0.0125 ± 0.013 | -0.02 ± 0.0099 | -0.065 ± 0.034 | -0.0485 ± 0.005 | -0.1335 ± 0.00071 | 0.0155 ± 0.029 | 0.027 ± 0.023 | 0.0055 ± 0.049 | 0.013 ± 0.0028 | 0.0335 ± 0.019 | 0.0425 ± 0.0021
CASM3C:CXCL8/IL-8 | -0.005 ± 0.0057 | -0.007 ± 0.0099 | 0.0075 ± 0.015 | 0.001 ± 0.011 | -0.003 ± 0.023 | 0.0185 ± 0.043 | 0.002 ± 0.0028 | -0.0025 ± 0.0035 | 0.003 ± 0.018 | 0.0055 ± 0.0092 | -0.0005 ± 0.0078 | 0.011 ± 0.021 | -0.0075 ± 0.016 | -0.024 ± 0.0085 | 0.011 ± 0.037 | 0.018 ± 0.052 | 0.0295 ± 0.039 | 0.0115 ± 0.019 | 0.0295 ± 0.016 | 0.076 ± 0.017
MyoF:TIMP-1 | -0.0285 ± 0.054 | -0.0325 ± 0.05 | -0.0435 ± 0.067 | 0.0645 ± 0.077 | 0.05 ± 0.047 | 0.0465 ± 0.12 | 0.0095 ± 0.0064 | -0.009 ± 0.0028 | -0.038 ± 0.025 | 0.036 ± 0.0085 | 0.0395 ± 0.011 | -0.058 ± 0.0014 | -0.112 ± 0.011 | -0.0885 ± 0.0092 | -0.0305 ± 0.097 | -0.006 ± 0.079 | -0.001 ± 0.044 | 0.0135 ± 0.059 | 0.0705 ± 0.083 | 0.0855 ± 0.1
CASM3C:CD106/VCAM-1 | -0.0215 ± 0.053 | -0.0085 ± 0.033 | -0.0265 ± 0.059 | 0.027 ± 0.025 | 0.0445 ± 0.052 | 0.0445 ± 0.0078 | 0.0215 ± 0.005 | -0.0015 ± 0.0078 | -0.063 ± 0.0014 | 0.003 ± 0.017 | -0.003 ± 0.025 | -0.023 ± 0.041 | -0.085 ± 0.0057 | -0.219 ± 0.021 | 0.0345 ± 0.029 | 0.0105 ± 0.037 | -0.06 ± 0.021 | -0.003 ± 0.0071 | -0.016 ± 0.016 | -0.007 ± 0.021
